What all share (format): cell-based, mouse
The test system of data set [1] is MEFs. Description: Crystal violet cell viability assay in MEFs. Conditions: MEFs treated with metabolic inhibitors; data not shown. An excerpt:
(§1) BMDMs derived from C57BL/6J mice (Jackson Laboratories) of 3-4 months were used. Mouse embryonic fibroblasts (NIH 3T3 cells, hereafter “MEFs”) were stably transfected with a Sleeping Beauty transposon plasmid (pLuBIG) having a bidirectional promoter driving an improved firefly luciferase gene (fLuc) and a fusion gene encoding a Blasticidin-resistance marker (BsdR) linked to eGFP (BGL). For temporal (IVIS) experiments lasting 12 days, 5,000 BGL cells were initially seeded in each well of a 96-well tissue culture plate in 200 μL if complete medium. For ATP, crystal violate, and Seahorse assays, 20,000 wild-type MEFs were seeded. For ATP, crystal violate, and cytokine/chemokine assays, 50,000 BMDMs were seeded. 60,000 BMDMs were seeded for the Seahorse assays. For IVIS experiments with glycolytic inhibitors, 20,000 BGL cells were initially seeded. Complete medium comprised DMEM medium, 10% heat inactivated fetal bovine serum (FBS), and 100 U/mL penicillin/streptomycin (all from ThermoFisher Scientific).
(§2) Cell viability was measured using the crystal violet staining assay at room temperature. 50 μL media containing cells is incubated with 150 μL of 99.9% methanol for 15 minutes. […] Absorbance (optical density) was acquired at 570 nm using the SpectraMax M3 Spectrophotometer (Molecular Devices) and SoftMax Pro software (ver. 7.0.2).

For data set [2], the system named is BMDMs. As to the kind of experiment: Crystal violet cell viability assay in BMDMs. Conditions: BMDMs treated with metabolic inhibitors; data not shown.
Text: as §1, §2

Data set [3] relates to BMDMs. Description: Cytokine and chemokine multiplex assay in BMDM supernatants.
Text: as §1
Cytokine and chemokine levels were measured using a MILLIPLEX MAP mouse magnetic bead multiplex kit (MilliporeSigma) to assess for IL-6, MCP-1, TNF-α, IL-1β, IL-4, IL-10, IFN-γ, and 1L-13 protein expression in supernatants. Data was acquired using Luminex 200 (Luminex Corporation) by the xPONENT software (Version 3.1, Luminex Corporation). […] Values exceeding the dynamic range of the assay, in accordance with manufacturer's instruction, were excluded. Additionally, IL-6 ELISA kits (RayBiotech) for supernatants were used according to manufacturer's instructions.

Data set [4] has as its system BMDMs. As to the kind of experiment: Seahorse assay (ECAR, PER, OCR) in BMDMs. Conditions: PE-exposed BMDMs in presence of inhibitor.
Text: as §1
To determine the metabolic pathways responsible for the observed bioenergetic changes, Seahorse assays were used to measure oxygen consumption rate (OCR), extracellular acidification rate (ECAR) and lactate-linked proton efflux rate (PER) in a customized medium (pH 7.4). Basal measurements of OCR, ECAR, and PER were obtained in real time using the Seahorse XFe-96 Extracellular Flux Analyzer (Agilent Technologies). Prior to running the assay, cell culture medium was washed with and replaced by the Seahorse XF DMEM medium (pH 7.4) supplemented with 25 mM D-glucose and 4 mM glutamine. The Seahorse plates were equilibrated in a non-CO2 incubator for an hour prior to the assay. The Seahorse ATP rate and cell energy phenotype assays were run according to manufacturer's instruction and all reagents for the Seahorse assays were sourced from Agilent Technologies. Wave software (Version 2.6.1) was used to export Seahorse data directly as means±standard deviation (SD).
Seahorse assays measures ECAR as an index of glycolytic flux, OCR as an index of oxidative phosphorylation and PER as an index of monocarboxylate transporter function in live cells, and are used to assess for metabolic reprogramming. […] (FIGS. 3a-c)
(§3) Preparation of ultra-high molecular weight polyethylene particles are described in Example 1 above. The bioenergetics measurements, Seahorse assay, crystal violet assay, and cytokine and chemokine assays were conducted as described in Example 1. Inhibitors rotenone, metformin, oligomycin, and antimycin A were obtained from MilliporeSigma. The reagents were reconstituted in complete medium (described above).

Data set [5] has as its system MEFs. As to the kind of experiment: Total ATP levels in lysed MEFs (ATP/ADP kit). Conditions: PE-exposed MEFs with inhibitor of mitochondrial respiration. On the procedure:
(§4) Bioluminescence was measured using an IVIS Spectrum in vivo imaging system (PerkinElmer) after addition of 150 μg/mL of D-luciferin (PerkinElmer). Living Image (Version 4.5.2, PerkinElmer) was used for acquiring bioluminescence on the IVIS Spectrum. Standard ATP/ADP kits (Sigma-Aldrich) containing D-luciferin, luciferase, and cell lysis buffer were used according to manufacturer's instructions. Luminescence at integration time of 1,000 ms was obtained using the SpectraMax M3 Spectrophotometer (Molecular Devices) and SoftMax Pro software (ver. 7.0.2).
as §1

In data set [6] the test system is BMDMs. Description: Bioenergetic (ATP) levels in BMDMs. Conditions: PE-exposed BMDMs with inhibitor of mitochondrial respiration. As to the method: as §4, §1, §3
The test system of data set [7] is macrophages. As to the kind of experiment: mitoSOX Red staining for mitochondrial ROS. Conditions: added to PE-exposed macrophages, compared to macrophages exposed to only PE. An excerpt: To test whether increased OCR at complex I (FIG. 8c) fueled ROS production in the mitochondrion, macrophages were stained with mitoSOX Red. Exposure to LPS or PE particles increased mitochondrial reactive oxygen species (ROS) relative to untreated macrophages. Addition of metformin decreased mitochondrial ROS compared to macrophages exposed to only PE. Mitochondrial membrane potential is critical for reverse electron transport (RET) at complex I, and subsequent generation of mitochondrial ROS.

Data set [8] deals with macrophages. As to the kind of experiment: TMRM staining for mitochondrial membrane potential. Conditions: metformin added to exposed cells.
Where [9] appears, read: 1 mM inhibitor, BMDMs exposed to ultra-high molecular weight PE particles.
Setting [10] is: metformin, BMDMs treated with PE.

`O=CC[C@@H](O)[C@H](O)[C@H](O)CO` [2DG, 2-deoxyglucose]: the cell viability result in the data set on MEFs [1] is “did not lower”. In addition, the cell viability entry in the data set with BMDMs [2] is reported as “did not lower”. Also, in the data set with BMDMs [3] (setting [9]), the IL-4 result was “increased”, the “expression of IL-1β” value is listed as “decreased”, the “expression of IL-6” value is given as “decreased” and the “expression of MCP-1” value is “decreased”. Also, the “expression of TNF-α” value in the data set with BMDMs [3] (setting [9]) was “decreased”.
Turning to `O=C(C=Cc1cccnc1)c1ccncc1` [3PO, 3-(3-pyridinyl)-1-(4-pyridinyl)-2-propen-1-one], the cell viability result in the data set on MEFs [1] was “did not lower”. For the same compound, in the data set with BMDMs [2], the cell viability result is “did not lower”. For the same compound, in the data set with BMDMs [3] (setting [9]), the IL-4 result is given as “increased”, the “expression of IL-1β” value is “decreased”, the “expression of IL-6” value was “decreased” and the “expression of MCP-1” value is recorded as “decreased”. The “expression of TNF-α” value in the data set on BMDMs [3] (setting [9]) is recorded as “decreased”.
For `NOCC(=O)O` [aminooxyacetic acid], in the data set on BMDMs [3] (setting [9]), the IL-4 entry is on record as “increased”, the IL-10 levels entry was “increased”, the “expression of IL-1β” value is “decreased” and the “expression of IL-6” value is reported as “decreased”. Moreover, in the data set with BMDMs [3] (setting [9]), the “expression of MCP-1” value is listed as “decreased” and the “expression of TNF-α” value was “decreased”.
Consider `CN(C)C(=N)N=C(N)N` [metformin], for which, in the data set with BMDMs [4], the ECAR entry is “reduced”, the OCR result is listed as “reduced” and the PER result is given as “reduced”. Further, in the data set on MEFs [5], the “ATP levels in PE-exposed cells” value was “did not impact”. In the data set with BMDMs [6], the “ATP levels in PE-exposed cells” value was “did not impact”. Besides, in the data set on BMDMs [3] (setting [10]), the IL-1β result is recorded as “decreases”, the IL-4 entry is “did not increase”, the IL-6 result is reported as “decreases” and the IL-10 result is “did not increase”. In addition, in the data set on BMDMs [3] (setting [10]), the MCP-1 result is on record as “decreases” and the TNF-α expression result was “not mitigated”. The “mitochondrial ROS” value in the data set with macrophages [7] is listed as “decreased”. Besides, the “elevated mitochondrial membrane potential” value in the data set with macrophages [8] was “decreases”.
Turning to `CC[C@H]1/C=C/C=C/C[C@@H](C)[C@H](O)[C@@](C)(O)C(=O)[C@@H](C)[C@H](O)[C@@H](C)C(=O)[C@@H](C)[C@H](O)[C@@H](C)/C=C/C(=O)O[C@@H]2[C@H](C)[C@H](CC1)O[C@]1(CC[C@H](C)[C@H](C[C@@H](C)O)O1)[C@H]2C` [oligomycin], the OCR result with BMDMs [4] is given as “affected”. Also, the “ATP levels in PE-exposed cells” value in the data set on MEFs [5] and in the data set with BMDMs [6] was “did not impact” each time.
As for `C=C(C)[C@H]1Cc2c(ccc3c2O[C@@H]2COc4cc(OC)c(OC)cc4[C@@H]2C3=O)O1` [rotenone], in the data set on BMDMs [4], the ECAR entry is reported as “did not impact”, the OCR entry is given as “decrease” and the PER result is given as “did not impact”. The “ATP levels in PE-exposed cells” value with MEFs [5] was “did not impact”. Besides, the “ATP levels in PE-exposed cells” value with BMDMs [6] was “did not impact”.
